Data from ChEMBL document CHEMBL5046249, “Synthesis, biological evaluation and cellular localization study of fluorescent derivatives of Jiyuan Oridonin A” (Eur J Med Chem, 2022).
Active and inactive are the calls of the source. The calls are words filed in the database; no cut-off is given here.

What was measured:
PC-3 = assay: Antiproliferative activity against human PC-3 cells assessed as inhibition of cell growth measured after 72 hrs by SRB assay; format: functional, cell-based; settings: PC-3, 72 h
[1] = Cytotoxicity against human GES1 cells assessed as inhibition of cell growth measured after 72 hrs by SRB assay; format: toxicity, cell-based
[2] = Drug uptake in human HGC-27 cells assessed as increase in fluorescence intensity of green signal at 8 uM measured after 1 hr by fluorescence microscopic analysis; format: ADME, cell-based; settings: hgc-27, 1 h
MGC-803 = assay: Antiproliferative activity against human MGC-803 cells assessed as inhibition of cell growth measured after 72 hrs by SRB assay; format: functional, cell-based; settings: MGC-803, 72 h
HGC-27 [3] = assay: Induction of apoptosis in human HGC-27 cells assessed as increase in Bax expression upto 2 uM measured after 24 hrs by Western blot analysis; format: functional, cell-based; settings: dose microM <=2, time 24.0 hrs
HGC-27 [4] = assay: Induction of apoptosis in human HGC-27 cells assessed as increase in cleaved caspase-3 expression upto 2 uM measured after 24 hrs by Western blot analysis; format: functional, cell-based; settings: dose microM <=2, time 24.0 hrs
HGC-27 [5] = assay: Inhibition of colony formation in human HGC-27 cells measured for 24 hrs by crystal violet staining based assay; format: functional, cell-based; settings: dose microM <=2, time 24.0 hrs
HGC-27 [6] = assay: Induction of mitochondrial membrane potential loss in human HGC-27 cells assessed as decrease in red fluorescence intensity upto 2 uM incubated for 24 hrs by TMRM dye based flow cytometric analysis; format: functional, cell-based; settings: dose microM <=2, time 24.0 hrs
TE-1 = assay: Antiproliferative activity against human TE-1 cells assessed as inhibition of cell growth measured after 72 hrs by SRB assay; format: functional, cell-based; settings: TE-1, 72 h
HGC-27 [7] = assay: Induction of apoptosis in human HGC-27 cells assessed as increase in total apoptotic cells by Hoechst 33342 staining based fluorescence assay; format: functional, cell-based; settings: dose 0.5-2 µM
HGC-27 [8] = assay: Induction of apoptosis in human HGC-27 cells assessed as increase in cytochrome-c expression upto 2 uM measured after 24 hrs by Western blot analysis; format: functional, cell-based; settings: dose microM <=2, time 24.0 hrs
HGC-27 [9] = assay: Antiproliferative activity against human HGC-27 cells assessed as inhibition of cell growth measured after 72 hrs by SRB assay; format: functional, cell-based; settings: HGC-27, 72 h
[10] = Drug uptake in human HGC-27 cells assessed as increase in fluorescence intensity by fluorescence microscopic analysis; format: ADME, cell-based; settings: dose 2-8 µM, time <=60 min
HGC-27 [11] = assay: Induction of apoptosis in human HGC-27 cells assessed as nuclear cohesion at 0.5 to 2 uM by Hoechst 33342 staining based fluorescence assay; format: functional, cell-based; settings: dose 0.5-2 µM
SW1990 = assay: Antiproliferative activity against human SW1990 cells assessed as inhibition of cell growth measured after 72 hrs by SRB assay; format: functional, cell-based; settings: SW1990, 72 h
HGC-27 [12] = assay: Induction of apoptosis in human HGC-27 cells assessed as increase in cleaved caspase-9 expression upto 2 uM measured after 24 hrs by Western blot analysis; format: functional, cell-based; settings: dose microM <=2, time 24.0 hrs
[13] = Drug localization in mitochondria of human HGC-27 cells at 2 uM incubated for 1 hr by Mitotracker red dye based confocal laser microscopy analysis; format: ADME; settings: hgc-27, 1 h
HGC-27 [14] = assay: Induction of apoptosis in human HGC-27 cells assessed as enhance brightness of fluorescence at 0.5 to 2 uM by Hoechst 33342 staining based fluorescence assay; format: functional, cell-based; settings: dose 0.5-2 µM
HGC-27 [15] = assay: Antimigratory activity against human HGC-27 cells assessed as inhibition of cell migration measured after 24 hrs by cell scratch assay; format: functional, cell-based; settings: dose microM <=2, time 24.0 hrs
[16] = Drug localization in nucleus of human HGC-27 cells at 2 uM incubated for 1 hr by DAPI staining based confocal laser microscopic analysis; format: ADME, cell-based; settings: hgc-27, 1 h
HGC-27 [17] = assay: Induction of apoptosis in human HGC-27 cells assessed as nuclear rupture at 0.5 to 2 uM by Hoechst 33342 staining based fluorescence assay; format: functional, cell-based; settings: dose 0.5-2 µM
HGC-27 [18] = assay: Induction of apoptosis in human HGC-27 cells assessed as decrease in Bcl-2 expression upto 2 uM measured after 24 hrs by Western blot analysis; format: functional, cell-based; settings: dose microM <=2, time 24.0 hrs

IC50 (PC-3): 680 nM | Drug uptake [2]: Active | IC50 (MGC-803): 640 nM | Drug uptake [10]: Dose-Dependent Effect and Tde | IC50 (SW1990): 860 nM | Drug uptake [13]: Active | Drug uptake [16]: Not Active
Structure (SMILES): C=C1C(=O)[C@]23[C@H](O)[C@H]1C[C@H](O)[C@H]2[C@]12CCCC(C)(C)[C@H]1C[C@H]3O[C@H]2OCCCCCc1cn(CCOCCOCCOCCN2C(=O)c3cccc4c(N5CCCCC5)ccc(c34)C2=O)nn1
IC50 at 72 h [1]: 18100 nM | Activity (HGC-27 [3]): Active | Activity (HGC-27 [4]): Active | Activity (HGC-27 [5]): Dose-Dependent Effect | Activity (HGC-27 [6]): Active | IC50 (TE-1): 730 nM | Activity (HGC-27 [7]): Active | Activity (HGC-27 [8]): Active | IC50 (HGC-27 [9]): 390 nM | Activity (HGC-27 [11]): Active | Activity (HGC-27 [12]): Active | Activity (HGC-27 [14]): Active | Activity (HGC-27 [15]): Dose-Dependent Effect | Activity (HGC-27 [17]): Active | Activity (HGC-27 [18]): Active
